The values below come from US20250368648A1, “MULTI-CYCLIC IRAK AND FLT3 INHIBITING COMPOUNDS AND USES THEREOF” (CHILDREN'S HOSPITAL MEDICAL CENTER, priority 2022, published 2025).

Molecules are shown by their SMILES. Some results are limits rather than exact numbers.

Format in all cases: biochemical
Details in all cases: HotSpot functional assay, isolated kinase enzyme, 33P-ATP

Experiment [1] deals with T1, IRAK1 (Homo sapiens, UniProt P51617).
T1 construct: purchased RBC (Reaction Biology) HotSpot assay
T1 sequence (P51617 whole entry): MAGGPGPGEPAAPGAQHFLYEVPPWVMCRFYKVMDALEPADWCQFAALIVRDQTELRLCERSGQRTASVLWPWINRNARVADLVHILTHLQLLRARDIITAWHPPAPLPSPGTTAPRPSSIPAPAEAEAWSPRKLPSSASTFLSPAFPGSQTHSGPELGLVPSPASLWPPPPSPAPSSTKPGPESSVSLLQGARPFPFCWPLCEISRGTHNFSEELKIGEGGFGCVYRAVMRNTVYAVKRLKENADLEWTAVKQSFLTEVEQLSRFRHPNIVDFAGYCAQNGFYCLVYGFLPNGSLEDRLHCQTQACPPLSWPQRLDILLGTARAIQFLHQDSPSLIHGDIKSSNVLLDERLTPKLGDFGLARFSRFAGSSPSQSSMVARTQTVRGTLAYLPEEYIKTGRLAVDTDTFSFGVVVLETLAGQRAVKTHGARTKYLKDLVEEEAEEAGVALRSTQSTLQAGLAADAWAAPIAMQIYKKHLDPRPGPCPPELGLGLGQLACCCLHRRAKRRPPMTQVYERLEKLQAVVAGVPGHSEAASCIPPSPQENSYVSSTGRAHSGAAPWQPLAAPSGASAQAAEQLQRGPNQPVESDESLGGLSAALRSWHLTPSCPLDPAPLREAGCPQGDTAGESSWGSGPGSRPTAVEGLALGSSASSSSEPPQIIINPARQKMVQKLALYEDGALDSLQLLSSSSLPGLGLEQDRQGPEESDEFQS
Nature of the experiment: RBC HotSpot Kinase Assay, IRAK1. From the text:
(§1) This assay uses the isolated kinase enzyme. This assay is very useful for determining competition of the inhibitor for ATP and/or substrates and for measuring the kinetics of enzyme inhibition. […] Unlike kinase binding assays that measure competition for ATP, the HotSpot Kinase Assay is a functional assay that measures catalytic activity; as such it measures relative functional potency regardless of the mechanism of enzyme inhibition. This assay uses the form of the various enzymes that are easiest to express, which may not necessarily be the form of the enzyme that exist in the cell. (Sometimes the carboxy terminus has been truncated to aid in expression, or, if it is a receptor kinase, the enzyme itself is isolated from the other parts of the receptor that are involved in regulating kinase activity.)
(§2) The reagent used was as follows: Base Reaction buffer; 20 mM Hepes (pH 7.5), 10 mM MgCl2, 1 mM EGTA, 0.01% Brij35, 0.02 mg/mi BSA, 0.1 mM Na3VO4, 2 mM DTT, 1% DMSO. Required cofactors were added individually to each kinase reaction.
(§3) The reaction procedure was as follows: • 1) Substrates were prepared in freshly prepared Reaction Buffer. • 2) Any required cofactors were delivered to the substrate solution above. • 3) Kinase was delivered into the substrate solution and gently mixed. • 4) Compounds were delivered in 100% DMSO into the kinase reaction mixture by Acoustic technology (Echo550, nanoliter range), followed by incubation for 20 min at room temp. • 5) ^33P-ATP was delivered into the reaction mixture to initiate the reaction. • 6) The mixture was incubated for 2 hours at room temperature. • 7) Kinase activity was detected by P81 filter-binding method.

For experiment [2], the target named is T2, IRAK4 (Homo sapiens, UniProt Q9NWZ3).
T2 sequence (Q9NWZ3 1-460): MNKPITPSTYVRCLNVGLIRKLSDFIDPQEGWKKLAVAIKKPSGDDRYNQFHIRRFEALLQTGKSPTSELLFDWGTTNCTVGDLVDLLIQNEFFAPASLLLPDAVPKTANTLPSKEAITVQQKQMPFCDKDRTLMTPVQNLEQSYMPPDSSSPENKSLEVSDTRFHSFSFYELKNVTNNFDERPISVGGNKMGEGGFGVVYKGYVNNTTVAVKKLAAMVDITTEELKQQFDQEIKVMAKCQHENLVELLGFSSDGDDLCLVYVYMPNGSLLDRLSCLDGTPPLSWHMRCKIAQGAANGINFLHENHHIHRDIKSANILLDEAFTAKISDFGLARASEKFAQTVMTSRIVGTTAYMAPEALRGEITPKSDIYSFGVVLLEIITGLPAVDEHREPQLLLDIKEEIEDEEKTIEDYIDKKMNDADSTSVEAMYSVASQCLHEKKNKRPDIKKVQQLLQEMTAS
Kind of experiment: RBC HotSpot Kinase Assay, IRAK4. Further details: purchased RBC (Reaction Biology) HotSpot assay.
Source text: as §1, §2, §3

Experiment [3] concerns the target T3, FLT3 (Homo sapiens, UniProt P36888).
T3 sequence (P36888 27-993): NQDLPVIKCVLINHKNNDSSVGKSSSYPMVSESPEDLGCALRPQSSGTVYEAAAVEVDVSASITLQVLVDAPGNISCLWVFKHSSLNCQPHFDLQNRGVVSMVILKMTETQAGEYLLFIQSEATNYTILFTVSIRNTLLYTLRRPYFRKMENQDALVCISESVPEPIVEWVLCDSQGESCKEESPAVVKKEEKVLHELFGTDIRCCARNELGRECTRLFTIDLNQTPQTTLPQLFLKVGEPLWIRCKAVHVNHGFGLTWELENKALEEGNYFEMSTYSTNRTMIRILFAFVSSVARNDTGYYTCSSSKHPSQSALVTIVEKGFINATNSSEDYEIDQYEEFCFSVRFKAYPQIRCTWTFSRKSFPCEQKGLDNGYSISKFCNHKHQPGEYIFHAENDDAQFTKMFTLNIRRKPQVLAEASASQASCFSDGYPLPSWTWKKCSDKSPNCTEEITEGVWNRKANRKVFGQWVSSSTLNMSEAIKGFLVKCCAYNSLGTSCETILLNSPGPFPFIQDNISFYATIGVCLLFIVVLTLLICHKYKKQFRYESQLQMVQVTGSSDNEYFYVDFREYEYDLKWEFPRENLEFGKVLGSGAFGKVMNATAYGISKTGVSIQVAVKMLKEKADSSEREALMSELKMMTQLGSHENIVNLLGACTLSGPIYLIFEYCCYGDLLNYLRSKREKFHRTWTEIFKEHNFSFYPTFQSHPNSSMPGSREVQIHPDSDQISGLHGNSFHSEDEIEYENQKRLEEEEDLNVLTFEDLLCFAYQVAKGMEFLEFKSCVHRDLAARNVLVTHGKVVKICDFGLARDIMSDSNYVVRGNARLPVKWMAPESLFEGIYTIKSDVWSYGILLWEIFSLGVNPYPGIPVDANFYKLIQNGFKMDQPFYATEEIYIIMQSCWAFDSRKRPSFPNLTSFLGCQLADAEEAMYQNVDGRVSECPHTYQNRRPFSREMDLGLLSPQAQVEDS
Kind of experiment: RBC HotSpot Kinase Assay, FLT3. Further details: purchased RBC (Reaction Biology) HotSpot assay.
Source text: as §1, §2, §3

A word on the IC50: it is the concentration needed to halve the response being measured. `COc1cc2ncc(-c3nc(N[C@@H]4CCCNC4)ccc3C#N)n2nc1C1CC1` [Compound 30a, (R)-2-(6-cyclopropyl-7-methoxyimidazo[1,2-b]pyridazin-3-yl)-6-(piperidin-3-ylamino)nicotinonitrile]: the IC50 turned out to be 2290 nM in experiment [1], 110 nM in experiment [2] and 48 nM in experiment [3].

As for `COc1cc2ncc(-c3nc(N[C@H]4CNCC[C@@H]4F)ccc3C#N)n2nc1C1CC1` [Compound 31a, 2-(6-cyclopropyl-7-methoxyimidazo[1,2-b]pyridazin-3-yl)-6-(((3S,4S)-4-fluoropiperidin-3-yl)amino)nicotinonitrile], the values for the IC50 in experiment [1], in experiment [2] and in experiment [3] were 1110 nM, 10 nM and 43 nM, respectively.

In the case of `COc1ccc(N[C@@H]2CCCNC2)nc1-c1cnc2cc(OC)c(C3CC3)nn12` [Compound 32a, (R)-6-(6-cyclopropyl-7-methoxyimidazo[1,2-b]pyridazin-3-yl)-5-methoxy-N-(piperidin-3-yl)pyridin-2-amine], the IC50 in experiment [1] was > 10000 nM; in experiment [2], 853 nM; in experiment [3], 80 nM.

`COc1ccc(-c2cnc3cc(OC)c(C4CC4)nn23)nc1N[C@H]1CNC[C@@H]1F` [Compound 33a, 6-(6-cyclopropyl-7-methoxyimidazo[1,2-b]pyridazin-3-yl)-N-((3S,4S)-4-fluoropyrrolidin-3-yl)-3-methoxypyridin-2-amine]: the IC50 in experiment [1] was > 10000 nM; in experiment [2], 47 nM; in experiment [3], < 0.5 nM.

Take `COc1ccc(-c2cnc3cc(OC)c(C4CC4)nn23)nc1N[C@@H]1CCCNC1` [Compound 34a, (R)-6-(6-cyclopropyl-7-methoxyimidazo[1,2-b]pyridazin-3-yl)-3-methoxy-N-(piperidin-3-yl)pyridin-2-amine]: the IC50 was > 10000 nM in experiment [1], 202 nM in experiment [2] and < 0.5 nM in experiment [3].

With `COc1ccc(-c2cnc3cc(OC)c(C4CC4)nn23)nc1N[C@H]1CNCC[C@@H]1F` [Compound 35a, 6-(6-cyclopropyl-7-methoxyimidazo[1,2-b]pyridazin-3-yl)-N-((3S,4S)-4-fluoropiperidin-3-yl)-3-methoxypyridin-2-amine], the IC50 was > 10000 nM in experiment [1], 55 nM in experiment [2] and < 0.5 nM in experiment [3].

On to `COc1ccc(N[C@H]2CNC[C@@H]2F)nc1-c1cnc2cc(OC)c(C3CC3)nn12` [Compound 36a, 6-(6-cyclopropyl-7-methoxyimidazo[1,2-b]pyridazin-3-yl)-N-((3S,4S)-4-fluoropyrrolidin-3-yl)-5-methoxypyridin-2-amine], for which the IC50 in experiment [1] is > 10000 nM; in experiment [2] it was 341 nM; in experiment [3] it was 105 nM.

In the case of `COc1ccc(N[C@H]2CNCC[C@@H]2F)nc1-c1cnc2cc(OC)c(C3CC3)nn12` [Compound 37a, 6-(6-cyclopropyl-7-methoxyimidazo[1,2-b]pyridazin-3-yl)-N-((3S,4S)-4-fluoropiperidin-3-yl)-5-methoxypyridin-2-amine], the values for the IC50 in experiment [1], in experiment [2] and in experiment [3] were > 10000 nM, 247 nM and 40 nM, respectively.

In the case of `COc1cc2ncc(-c3cc(C)cc(N[C@H]4CNC[C@@H]4F)n3)n2nc1C1CC1` [Compound 50a, 6-(6-cyclopropyl-7-methoxyimidazo[1,2-b]pyridazin-3-yl)-N-((3S,4S)-4-fluoropyrrolidin-3-yl)-4-methylpyridin-2-amine], the IC50 came out at 8270 nM in experiment [1], 5240 nM in experiment [2] and 2 nM in experiment [3].

Regarding `COc1cc2ncc(-c3cc(C)cc(N[C@@H]4CCCNC4)n3)n2nc1C1CC1` [Compound 51a, (R)-6-(6-cyclopropyl-7-methoxyimidazo[1,2-b]pyridazin-3-yl)-4-methyl-N-(piperidin-3-yl)pyridin-2-amine], the IC50 is > 10000 nM in experiment [1], 4920 nM in experiment [2] and 2 nM in experiment [3].

Take `COc1cc2ncc(-c3cc(C)cc(N[C@H]4CNCC[C@@H]4F)n3)n2nc1C1CC1` [Compound 52a, 6-(6-cyclopropyl-7-methoxyimidazo[1,2-b]pyridazin-3-yl)-N-((3S,4S)-4-fluoropiperidin-3-yl)-4-methylpyridin-2-amine]: the concentration for half-maximal inhibition (IC50) was > 10000 nM in experiment [1], 1740 nM in experiment [2] and 1 nM in experiment [3].

Turning to `COc1cc2ncc(-c3cc(-c4ccccc4)cc(N[C@H]4CNCC[C@@H]4F)n3)n2nc1C1CC1` [Compound 53a, 6-(6-cyclopropyl-7-methoxyimidazo[1,2-b]pyridazin-3-yl)-N-((3S,4S)-4-fluoropiperidin-3-yl)-4-phenylpyridin-2-amine], the IC50 in experiment [1] is 4590 nM; in experiment [2] it was 3190 nM; in experiment [3] it was 299 nM.

Take `COc1cc2ncc(-c3cc(-c4ccccc4)cc(N[C@H]4CNC[C@@H]4F)n3)n2nc1C1CC1` [Compound 54a, 6-(6-cyclopropyl-7-methoxyimidazo[1,2-b]pyridazin-3-yl)-N-((3S,4S)-4-fluoropyrrolidin-3-yl)-4-phenylpyridin-2-amine]: the values for the IC50 in experiment [1], in experiment [2] and in experiment [3] were 9510 nM, 6530 nM and 949 nM, respectively.

In the case of `COc1cc2ncc(-c3cc(-c4ccccc4)cc(N[C@@H]4CCCNC4)n3)n2nc1C1CC1` [Compound 55a, (R)-6-(6-cyclopropyl-7-methoxyimidazo[1,2-b]pyridazin-3-yl)-4-phenyl-N-(piperidin-3-yl)pyridin-2-amine], the IC50 in experiment [1] worked out at 4010 nM; in experiment [2], 4110 nM; in experiment [3], 741 nM.

In the case of `COc1cc2ncc(-c3cc(C4CC4)cc(N[C@H]4CNCC[C@@H]4F)n3)n2nc1C1CC1` [Compound 56a, 4-cyclopropyl-6-(6-cyclopropyl-7-methoxyimidazo[1,2-b]pyridazin-3-yl)-N-((3S,4S)-4-fluoropiperidin-3-yl)pyridin-2-amine], the values for the half-maximal inhibitory concentration (IC50) in experiment [1], in experiment [2] and in experiment [3] were > 10000 nM, 9000 nM and 2 nM, respectively.

For `COc1cc2ncc(-c3cc(C4CC4)cc(N[C@H]4CNC[C@@H]4F)n3)n2nc1C1CC1` [Compound 57a, 4-cyclopropyl-6-(6-cyclopropyl-7-methoxyimidazo[1,2-b]pyridazin-3-yl)-N-((3S,4S)-4-fluoropyrrolidin-3-yl)pyridin-2-amine], the results for the IC50 in experiment [1], in experiment [2] and in experiment [3] were > 10000 nM, > 10000 nM and 19 nM, respectively.

Take `COc1cc2ncc(-c3cc(C4CC4)cc(N[C@@H]4CCCNC4)n3)n2nc1C1CC1` [Compound 58a, (R)-4-cyclopropyl-6-(6-cyclopropyl-7-methoxyimidazo[1,2-b]pyridazin-3-yl)-N-(piperidin-3-yl)pyridin-2-amine]: the IC50 in experiment [1] is > 10000 nM; in experiment [2], > 10000 nM; in experiment [3] it was 5 nM.
